Results taken from PubChem BioAssay AID1053141 (Broad Institute, 2014).
Inconclusive results are not listed. Active and inactive are the calls of the source.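 Rule for the calls: active = compounds lowering cell ATP signal, with AC50 no higher than twice their own top valid dose; inconclusive = flat curve with 30 to 70% signal loss, or poor fit; inactive = the rest, including signal rises.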

System: not listed separately
Experiment: viability loss in HEK293 kidney cells – cell-based, ATP luminescence, dry powder, set 19, cytotoxicity control, dose response (AID 1053141)
Details: HEK293T viability, CellTiter-Glo ATP luminescence, 72 h; at 26 µM (top of the series)

Which activity change, negative = cytotoxicity does the source give for `CCCC(=O)Nc1ccc2c(c1)OC[C@H](C)N(Cc1ccc(-c3ccccn3)cc1)C[C@H](C)[C@@H](OC)CN(C)C2=O` here?
The activity change, negative = cytotoxicity was 4.89% (inactive).

Which activity change, negative = cytotoxicity does the source give for `CO[C@H]1CN(C)C(=O)c2ccc(NC(=O)NC(C)C)cc2OC[C@H](C)N(Cc2ccccc2)C[C@@H]1C` here?
Its activity change, negative = cytotoxicity is 94.8% (inactive).

For `CCCNC(=O)Nc1ccc2c(c1)OC[C@H](C)N(Cc1ccc(-c3ccccn3)cc1)C[C@H](C)[C@@H](OC)CN(C)C2=O`, which activity change, negative = cytotoxicity is on record?
The activity change, negative = cytotoxicity was 12.5% (inactive).

Which activity change, negative = cytotoxicity does the source give for `CCCNC(=O)Nc1ccc2c(c1)OC[C@H](C)N(Cc1ccccc1)C[C@H](C)[C@@H](OC)CN(C)C2=O` here?
The activity change, negative = cytotoxicity was 49.2% (inactive).

Which activity change, negative = cytotoxicity does the source give for `CO[C@H]1CN(C)C(=O)c2ccc(NC(=O)NC(C)C)cc2OC[C@H](C)N(Cc2ccc(-c3ccccn3)cc2)C[C@@H]1C` here?
Its activity change, negative = cytotoxicity is -6.54% (inactive).

Same assay, conditions: HEK293T viability, CellTiter-Glo ATP luminescence, 72 h; at 50 µM (top of the series)

With `CO[C@H]1CN(C)C(=O)c2cc(NC(=O)NC(C)C)ccc2OC[C@H](C)N(C(=O)c2ccc(-c3ccccn3)cc2)C[C@@H]1C` as the compound, how does the activity change, negative = cytotoxicity read?
The activity change, negative = cytotoxicity was -14% (inactive).

With `CO[C@H]1CN(C)C(=O)c2cc(NC(=O)NC(C)C)ccc2OC[C@H](C)N(Cc2ccncc2)C[C@@H]1C` as the compound, how does the activity change, negative = cytotoxicity read?
Its activity change, negative = cytotoxicity is -29.6% (inactive).

With `CO[C@H]1CN(C)C(=O)c2cc(NC(=O)NC(C)C)ccc2OC[C@H](C)N(C(=O)c2ccccc2)C[C@@H]1C` as the compound, how does the activity change, negative = cytotoxicity read?
The activity change, negative = cytotoxicity was 13.8% (inactive).

With `CO[C@H]1CN(C)C(=O)c2cc(NC(=O)NC(C)C)ccc2OC[C@H](C)N(Cc2cncnc2)C[C@@H]1C` as the compound, how does the activity change, negative = cytotoxicity read?
The activity change, negative = cytotoxicity was 24.6% (inactive).

With `CO[C@H]1CN(C)C(=O)c2cc(NC(=O)NC(C)C)ccc2OC[C@H](C)N(Cc2ccccn2)C[C@@H]1C` as the compound, how does the activity change, negative = cytotoxicity read?
The activity change, negative = cytotoxicity was 43.7% (inactive).

With `CO[C@H]1CN(C)C(=O)c2cc(NC(=O)NC(C)C)ccc2OC[C@H](C)N(Cc2cccnc2)C[C@@H]1C` as the compound, how does the activity change, negative = cytotoxicity read?
Its activity change, negative = cytotoxicity is 30.5% (inactive).

System: HEK293T viability, CellTiter-Glo ATP luminescence, 72 h
Experiment: as above
Details: not given

For `CO[C@H]1CN(C)C(=O)c2cc(NC(=O)NC(C)C)ccc2OC[C@H](C)N(Cc2cccc(F)c2)C[C@@H]1C`, which AC50 is on record?
The AC50 was 35.8 µM.

With `CO[C@H]1CN(C)C(=O)c2cc(NC(=O)NC(C)C)ccc2OC[C@H](C)N(Cc2ccccc2F)C[C@@H]1C` as the compound, how does the AC50 read?
The AC50 was 27.4 µM.

With `CO[C@H]1CN(C)C(=O)c2cc(NC(=O)NC(C)C)ccc2OC[C@H](C)N(C(=O)Nc2ccc(-c3ccccn3)cc2)C[C@@H]1C` as the compound, how does the AC50 read?
The AC50 was > 100 µM (inactive).

For `CO[C@H]1CN(C)C(=O)c2cc(NC(=O)NC(C)C)ccc2OC[C@H](C)N(Cc2ccc(-c3ccccn3)cc2)C[C@@H]1C`, which AC50 is on record?
The AC50 was 27 µM.

For `CO[C@H]1CN(C)C(=O)c2cc(Nc3c(NC4CC4)c(=O)c3=O)ccc2OC[C@H](C)N(Cc2ccc(-c3ccccn3)cc2)C[C@@H]1C`, which AC50 is on record?
The AC50 was 15 µM.

For `CO[C@H]1CN(C)C(=O)c2cc(NC(=O)NC(C)C)ccc2OC[C@H](C)N(Cc2ccc(-c3ccncc3)cc2)C[C@@H]1C`, which AC50 is on record?
Its AC50 is 30.7 µM.

With `CO[C@H]1CN(C)C(=O)c2cc(Nc3ncccn3)ccc2OC[C@H](C)N(Cc2ccc(-c3ccccn3)cc2)C[C@@H]1C` as the compound, how does the AC50 read?
Its AC50 is 24.5 µM.

Which AC50 does the source give for `CO[C@H]1CN(C)C(=O)c2cc(NC(=O)C(C)C)ccc2OC[C@H](C)N(Cc2ccc(-c3ccccn3)cc2)C[C@@H]1C` here?
The AC50 was 52.3 µM.

Which AC50 does the source give for `CCC(CC)Nc1c(Nc2ccc3c(c2)C(=O)N(C)C[C@H](OC)[C@@H](C)CN(Cc2ccc(-c4ccccn4)cc2)[C@@H](C)CO3)c(=O)c1=O` here?
The AC50 was 39.8 µM.

With `CO[C@H]1CN(C)C(=O)c2cc(NC(=O)NC(C)C)ccc2OC[C@H](C)N(Cc2ccc(-c3cccnc3)cc2)C[C@@H]1C` as the compound, how does the AC50 read?
The AC50 was 37.7 µM.

Which AC50 does the source give for `CO[C@H]1CN(C)C(=O)c2cc(NC(=O)NC(C)C)ccc2OC[C@H](C)N(Cc2ccccc2)C[C@@H]1C` here?
The AC50 was 44.5 µM.

For `CCCC(=O)Nc1ccc2c(c1)OC[C@H](C)N(Cc1ccccc1)C[C@H](C)[C@@H](OC)CN(C)C2=O`, which AC50 is on record?
The AC50 was > 52 µM (inactive).

With `CO[C@H]1CN(C)C(=O)c2cc(NC(=O)NC(C)C)ccc2OC[C@H](C)N(Cc2ccc(F)cc2)C[C@@H]1C` as the compound, how does the AC50 read?
Its AC50 is 29.7 µM.

Which AC50 does the source give for `CO[C@H]1CN(C)C(=O)c2cc(Nc3c(NC4CCCC4)c(=O)c3=O)ccc2OC[C@H](C)N(Cc2ccc(-c3ccccn3)cc2)C[C@@H]1C` here?
Its AC50 is 13.8 µM.

With `CO[C@H]1CN(C)C(=O)c2cc(NC(=O)NC(C)C)ccc2OC[C@H](C)NC[C@@H]1C` as the compound, how does the AC50 read?
Its AC50 is > 100 µM (inactive).
